Data set [1] addresses T1, Coagulation factor XII (Homo sapiens, UniProt P00748).
T1 sequence (P00748 whole entry): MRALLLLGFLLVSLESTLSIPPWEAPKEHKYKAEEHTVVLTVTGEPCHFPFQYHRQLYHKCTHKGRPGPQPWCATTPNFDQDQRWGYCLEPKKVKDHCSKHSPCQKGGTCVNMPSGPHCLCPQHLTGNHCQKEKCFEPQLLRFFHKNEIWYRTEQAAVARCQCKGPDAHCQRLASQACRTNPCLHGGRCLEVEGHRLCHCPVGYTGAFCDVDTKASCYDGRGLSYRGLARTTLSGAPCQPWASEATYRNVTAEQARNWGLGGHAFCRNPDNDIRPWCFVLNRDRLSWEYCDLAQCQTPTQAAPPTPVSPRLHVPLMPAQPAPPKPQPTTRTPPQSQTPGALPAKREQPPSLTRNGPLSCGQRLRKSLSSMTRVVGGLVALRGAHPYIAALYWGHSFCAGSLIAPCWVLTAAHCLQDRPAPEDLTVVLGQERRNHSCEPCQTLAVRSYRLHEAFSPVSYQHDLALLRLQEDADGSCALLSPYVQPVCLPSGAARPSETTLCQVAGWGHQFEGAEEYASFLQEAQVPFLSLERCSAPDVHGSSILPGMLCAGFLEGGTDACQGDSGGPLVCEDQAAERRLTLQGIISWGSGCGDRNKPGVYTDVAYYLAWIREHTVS
Format: functional.

The subject of data set [2] is H4. Nature of the data set: Luminescence Cell-Based Dose Response HTS to Identify Activators of 5'UTR Stem-Loop Driven Prion Protein mRNA Translation in H4 Neuroglioblastoma Cells. [Related pubchem assays: 1829 (Project Summary), 1814 (Primary HTS)]. Format: functional. The note with it: Homo sapiens.
Data set [3] in a line: Luminescence Cell-Based Dose Response HTS to Identify Activators of Luciferase Translation or Activity in H4 […] Cells. [Related pubchem assays: 1829 (Project Summary), 1814 (Primary HTS)]. Format: functional.
Data set [4] is described as follows: Luminescence Cell-Based Dose Confirmation HTS to Identify Activators of 5'UTR Stem-Loop Driven Alpha-Synuclein mRNA Translation in H4 Neuroglioblastoma Cells. [Related pubchem assays: 1829 (Project Summary), 1814 (Primary HTS)]. Format: functional.
Data set [5] concerns the target Prothrombin (Homo sapiens, UniProt P00734). Nature of the data set: Thrombin 1536 HTS Dose Response Confirmation. [Related pubchem assays: 1046 (Thrombin 1536 HTS; hits were confirmed in this assay)]. Format: functional.
Data set [6] addresses T2, Apoptotic protease-activating factor 1 (Homo sapiens, UniProt O14727).
T2 sequence (O14727 whole entry): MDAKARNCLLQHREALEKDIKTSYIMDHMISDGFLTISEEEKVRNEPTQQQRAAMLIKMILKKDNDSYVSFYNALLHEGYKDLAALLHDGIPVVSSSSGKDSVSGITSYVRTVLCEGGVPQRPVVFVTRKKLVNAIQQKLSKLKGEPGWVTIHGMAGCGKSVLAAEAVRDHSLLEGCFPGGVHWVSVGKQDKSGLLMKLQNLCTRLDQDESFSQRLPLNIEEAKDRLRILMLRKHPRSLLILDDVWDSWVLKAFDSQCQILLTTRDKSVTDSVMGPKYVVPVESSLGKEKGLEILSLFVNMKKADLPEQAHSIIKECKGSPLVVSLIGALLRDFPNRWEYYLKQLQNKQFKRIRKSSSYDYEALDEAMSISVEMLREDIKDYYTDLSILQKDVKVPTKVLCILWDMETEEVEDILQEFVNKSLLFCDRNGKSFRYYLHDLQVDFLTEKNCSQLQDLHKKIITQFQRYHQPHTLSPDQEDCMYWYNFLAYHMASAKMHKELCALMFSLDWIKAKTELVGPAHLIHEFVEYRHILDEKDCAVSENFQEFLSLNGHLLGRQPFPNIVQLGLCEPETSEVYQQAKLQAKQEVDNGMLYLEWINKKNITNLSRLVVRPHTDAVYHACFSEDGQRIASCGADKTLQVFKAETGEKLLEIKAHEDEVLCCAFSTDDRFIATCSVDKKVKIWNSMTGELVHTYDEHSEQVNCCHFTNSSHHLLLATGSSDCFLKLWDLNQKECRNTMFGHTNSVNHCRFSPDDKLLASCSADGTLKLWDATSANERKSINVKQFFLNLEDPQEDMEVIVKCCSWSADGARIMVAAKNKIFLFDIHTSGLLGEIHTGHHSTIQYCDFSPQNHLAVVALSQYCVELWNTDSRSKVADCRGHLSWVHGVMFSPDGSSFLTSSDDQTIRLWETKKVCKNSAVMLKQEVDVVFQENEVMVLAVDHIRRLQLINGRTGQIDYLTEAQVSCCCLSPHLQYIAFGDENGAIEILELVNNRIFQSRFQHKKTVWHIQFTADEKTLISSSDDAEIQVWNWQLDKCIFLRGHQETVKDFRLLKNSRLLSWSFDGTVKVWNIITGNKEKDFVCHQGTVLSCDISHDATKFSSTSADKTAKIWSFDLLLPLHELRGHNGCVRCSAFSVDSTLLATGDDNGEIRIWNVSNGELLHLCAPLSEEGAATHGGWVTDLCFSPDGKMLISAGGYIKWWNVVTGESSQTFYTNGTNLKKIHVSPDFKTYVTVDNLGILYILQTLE
Format: functional.

Data set [7] in a line: intracellular Trypanosoma cruzi inhibitors in host cells – cell-based, plate reader, cherry-pick samples, set 3, dose response (AID 651818).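 Further: compounds incubated with infected cells for about four days.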 Format: functional.
The target of data set [8] is Cytochrome P450 3A4 (Homo sapiens, UniProt P08684).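 Further: CYP3A4 tested as one member of a cytochrome P450 panel screen.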
For data set [9], the system named is Vero. The experiment in a line: cells. Format: functional. The note with it: Chlorocebus sabaeus.
Data set [10] has as its system Vero. Nature of the data set: cells. The note with it: Chlorocebus sabaeus. Format: functional, cell-based.
For data set [11], the target named is T3, Adenosylmethionine-8-amino-7-oxononanoate aminotransferase (Mycobacterium tuberculosis, UniProt P9WQ81).
T3 sequence (P9WQ81 whole entry): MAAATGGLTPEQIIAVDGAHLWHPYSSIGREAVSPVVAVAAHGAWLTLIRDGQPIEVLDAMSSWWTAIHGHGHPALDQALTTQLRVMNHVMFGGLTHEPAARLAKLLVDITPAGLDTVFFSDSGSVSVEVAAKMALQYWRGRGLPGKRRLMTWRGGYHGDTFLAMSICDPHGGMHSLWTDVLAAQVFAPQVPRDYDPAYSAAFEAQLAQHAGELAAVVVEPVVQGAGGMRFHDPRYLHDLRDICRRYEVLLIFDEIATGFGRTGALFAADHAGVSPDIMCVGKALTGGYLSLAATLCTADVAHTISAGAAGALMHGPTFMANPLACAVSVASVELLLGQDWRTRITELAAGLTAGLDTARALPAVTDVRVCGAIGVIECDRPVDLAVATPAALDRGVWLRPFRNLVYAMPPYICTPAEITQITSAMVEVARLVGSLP
The experiment in a line: Mycobacterium tuberculosis BioA enzyme inhibitor Measured in Biochemical System Using Plate Reader - 2163-02_Inhibitor_Dose_CherryPick_Activity. Format: functional, Mycobacterium tuberculosis UT205.

The target of data set [12] is T4, Cytochrome P450 1A2 (Homo sapiens, UniProt P05177).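 Further: PubChem cytochrome P450 panel assay, CYP1A2 panel member.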
T4 sequence (P05177 whole entry): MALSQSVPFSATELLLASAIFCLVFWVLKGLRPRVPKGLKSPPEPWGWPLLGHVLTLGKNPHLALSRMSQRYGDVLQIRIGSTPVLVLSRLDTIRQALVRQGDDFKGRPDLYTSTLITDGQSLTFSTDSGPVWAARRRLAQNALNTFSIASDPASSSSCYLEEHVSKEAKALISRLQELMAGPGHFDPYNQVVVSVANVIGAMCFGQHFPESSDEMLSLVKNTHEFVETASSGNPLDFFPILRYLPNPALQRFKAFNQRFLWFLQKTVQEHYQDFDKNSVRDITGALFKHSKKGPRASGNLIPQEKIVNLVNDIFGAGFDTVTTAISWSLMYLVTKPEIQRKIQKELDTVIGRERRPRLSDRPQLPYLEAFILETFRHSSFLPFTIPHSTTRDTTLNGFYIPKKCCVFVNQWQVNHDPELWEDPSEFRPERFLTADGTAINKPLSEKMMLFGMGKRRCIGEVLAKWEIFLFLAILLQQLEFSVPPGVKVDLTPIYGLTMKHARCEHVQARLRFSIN

The target of data set [13] is Cytochrome P450 2D6 (Homo sapiens, UniProt P10635).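 Further: CYP2D6 member of a cytochrome P450 panel assay.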
Data set [14] addresses T5, Methionyl-tRNA synthetase, putative (Trypanosoma brucei brucei, UniProt Q38C91).
T5 sequence (Q38C91 whole entry): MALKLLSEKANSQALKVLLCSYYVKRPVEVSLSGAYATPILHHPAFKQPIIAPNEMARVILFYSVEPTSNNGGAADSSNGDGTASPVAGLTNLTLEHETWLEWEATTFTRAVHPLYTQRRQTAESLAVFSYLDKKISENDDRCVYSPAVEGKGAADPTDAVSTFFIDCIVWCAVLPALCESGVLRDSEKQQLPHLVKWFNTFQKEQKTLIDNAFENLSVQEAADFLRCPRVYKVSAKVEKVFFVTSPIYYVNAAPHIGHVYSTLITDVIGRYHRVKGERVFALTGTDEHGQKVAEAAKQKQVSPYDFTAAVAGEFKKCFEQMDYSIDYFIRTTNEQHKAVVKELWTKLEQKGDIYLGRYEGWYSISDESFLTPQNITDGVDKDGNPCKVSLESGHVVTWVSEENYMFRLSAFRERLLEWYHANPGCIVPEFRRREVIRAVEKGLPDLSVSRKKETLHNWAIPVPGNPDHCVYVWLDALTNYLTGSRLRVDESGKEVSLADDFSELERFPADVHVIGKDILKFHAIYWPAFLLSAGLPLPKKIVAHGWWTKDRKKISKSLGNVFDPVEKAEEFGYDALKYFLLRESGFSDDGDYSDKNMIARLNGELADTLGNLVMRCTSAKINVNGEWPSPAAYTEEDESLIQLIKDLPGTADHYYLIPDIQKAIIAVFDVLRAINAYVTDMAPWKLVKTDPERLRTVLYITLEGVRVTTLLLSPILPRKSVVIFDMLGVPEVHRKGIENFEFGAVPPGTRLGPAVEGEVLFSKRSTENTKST
Format: functional, Trypanosoma brucei brucei strain 927/4 GUTat10.1.

The nature of data set [15]: Counterscreen for inhibitors of Trypanosoma brucei methionyl tRNA synthetase (MetRS): Luminescence-based cell-based high throughput dose response assay to identify compounds that are cytotoxic to Jurkat human T lymphocyte cells. Format: functional.
Data set [16] has as its target T5, Methionyl-tRNA synthetase, putative. Format: functional, Trypanosoma brucei brucei strain 927/4 GUTat10.1. This is another data set of the same source.

The source made the active and inactive calls.

Sequence of Cytochrome P450 3A4 (P08684 whole entry): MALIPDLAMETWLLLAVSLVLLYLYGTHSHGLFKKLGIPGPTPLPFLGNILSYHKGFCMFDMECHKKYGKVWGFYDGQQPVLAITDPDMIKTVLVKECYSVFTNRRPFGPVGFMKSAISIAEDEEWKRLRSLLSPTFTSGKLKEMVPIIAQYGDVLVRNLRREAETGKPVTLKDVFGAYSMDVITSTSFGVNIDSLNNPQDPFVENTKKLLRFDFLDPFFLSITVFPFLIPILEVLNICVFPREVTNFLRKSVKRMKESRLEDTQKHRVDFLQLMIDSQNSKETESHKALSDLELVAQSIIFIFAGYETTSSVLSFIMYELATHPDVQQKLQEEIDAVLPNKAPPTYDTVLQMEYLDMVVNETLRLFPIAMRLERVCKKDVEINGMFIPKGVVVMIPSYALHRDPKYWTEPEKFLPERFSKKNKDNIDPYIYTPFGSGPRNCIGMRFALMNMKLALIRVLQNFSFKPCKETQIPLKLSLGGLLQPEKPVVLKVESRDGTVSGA
Sequence of Cytochrome P450 2D6 (P10635 whole entry): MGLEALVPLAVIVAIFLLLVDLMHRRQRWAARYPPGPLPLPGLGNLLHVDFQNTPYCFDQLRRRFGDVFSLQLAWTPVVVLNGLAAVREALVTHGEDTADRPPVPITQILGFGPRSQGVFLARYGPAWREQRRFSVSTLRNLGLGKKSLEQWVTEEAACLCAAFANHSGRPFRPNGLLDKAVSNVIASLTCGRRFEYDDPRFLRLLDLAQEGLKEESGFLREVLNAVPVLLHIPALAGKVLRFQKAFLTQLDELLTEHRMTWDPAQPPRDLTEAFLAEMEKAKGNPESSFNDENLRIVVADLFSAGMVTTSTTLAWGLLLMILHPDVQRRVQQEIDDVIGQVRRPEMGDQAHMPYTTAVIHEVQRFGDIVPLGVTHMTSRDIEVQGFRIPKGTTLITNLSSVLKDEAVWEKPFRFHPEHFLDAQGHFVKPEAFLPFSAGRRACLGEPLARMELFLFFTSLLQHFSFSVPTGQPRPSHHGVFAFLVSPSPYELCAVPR

Broadly, the IC50 is the midpoint of a concentration-inhibition curve. Usually EC50 stands for the concentration at which the effect is half-maximal. Regarding `CCOC(=O)/C(C#N)=C/N=c1/ccc(C)cn1C`, the 50% inhibitory concentration (IC50) in [1] is > 50 µM (inconclusive). In addition, the results for the 50% effective concentration (EC50) in data set [2], in data set [3] and in data set [4] were > 120 µM (not active), 23.8 µM (active) and 53.5 µM (active), respectively.

On to `O=C(COC(=O)c1ccc(O)cc1)NCCCc1ccccc1`, for which the results for the IC50 in [1] and in data set [5] were > 50 µM (inactive) and > 50 µM (not active), respectively.

Regarding `N#Cc1c(N(CCO)CCO)nc(N)c2c(N)nc3c(c12)CC(=O)N3Cc1cccs1`, the half-maximal inhibitory concentration (IC50) in data set [6] was 20.7 µM (active).

As a reminder, the AC50 is the concentration giving half of the maximal activity seen. Regarding `C[C@H]1CN([C@@H](C)CO)C(=O)Cc2cc(NC(=O)Nc3ccc(C(F)(F)F)cc3)ccc2O[C@H]1CN(C)Cc1ccc2c(c1)OCO2`, in data set [7], the half-maximal activity concentration (AC50) is 4.99 µM (active).

Consider `C[C@@H]1CN([C@H](C)CO)C(=O)Cc2cc(NC(=O)Cc3cn(C)c4ccccc34)ccc2O[C@H]1CN(C)Cc1ccc(C(F)(F)F)cc1`, for which the AC50 in data set [7] is 3.42 µM (active).

As to `C[C@@H]1CN([C@H](C)CO)C(=O)Cc2cc(NS(=O)(=O)c3cccs3)ccc2O[C@@H]1CN(C)Cc1ccc(C(=O)Nc2ccccc2N)cc1`, the concentration at half-maximal activity (AC50) in [7] was 4.03 µM (active).

With `N#Cc1ccc(C(=O)Nc2ccc(N3CCN(C(=O)c4ccco4)CC3)cc2)c(F)c1`, the AC50 entry in data set [8] is reported as “inconclusive”.

What is called CC50 is the concentration giving 50% cytotoxicity. With `O=C(c1cccc(S(=O)(=O)N2CCc3ccccc32)c1)N1CCN(c2ccccn2)CC1`, the CC50 in data set [9] was 18.9 µM (active). Further, the IC50 in [10] is 6.82 µM (active).

For the molecule `CS(=O)(=O)N1[C@H](C(=O)NCc2ccncc2)[C@@H](CO)[C@@H]2Cn3c(ccc(C4=CCCCC4)c3=O)[C@@H]21`, the AC50 in data set [11] was 6.52 µM (active).

As for `C[C@H](CO)N1C[C@H](C)[C@H](CN(C)Cc2ccc(Oc3ccccc3)cc2)Oc2c(NC(=O)Nc3cccc4ccccc34)cccc2C1=O`, the half-maximal activity concentration (AC50) in [7] was 3.24 µM (active).

Take `CCCc1nnc(NC(=O)CCC(=O)N2CCN(c3ccccn3)CC2)s1`: the AC50 result in [8] is given as “inconclusive”.

As to `COc1cc(C(=O)N2CCN(C(=O)c3ccccc3)CC2)cc(OC)c1OC`, the AC50 entry in [8] was “inconclusive”; in data set [12], 2.51 µM (inconclusive).

`C/C(=N/OCO/N=C(\C)c1ccccc1)c1ccccc1`: the concentration for half-maximal inhibition (IC50) in [10] was > 25 µM (active).

Take `COc1ccc(-c2nc3cnc(N4CCN(C)CC4)nc3n(CCc3ccccc3)c2=O)cc1`: the values for the AC50 in data set [13] and in data set [8] were 25.1 µM (inconclusive) and “inconclusive”, respectively.

As for `CCOc1ccc(CCNC(=O)c2cnc(C)cn2)cc1OCC`, the concentration at half-maximal activity (AC50) in [11] is 2.54 µM (active).

Regarding `CCc1nc2ccc(Br)cc2c(=O)n1-c1ccccc1C(F)(F)F`, the AC50 in [11] is 0.966 µM (active).

For the molecule `O=C(Nc1ncc2c(n1)CC(c1cccc(Cl)c1)CC2=O)c1ccco1` (stereo not given), the half-maximal activity concentration (AC50) in [11] was 1.95 µM (active).

`COc1cccc(NC(=O)CN(C)CC(=O)Nc2ccc(Br)cc2)c1`: the values for the IC50 in data set [14], in data set [15] and in [16] were 13.2 µM (inactive), 83.3 µM (inactive) and 51.2 µM (inactive), respectively.

Take `O=C(COC(=O)CCCOc1ccc(Cl)cc1Cl)NCc1ccccc1`: the IC50 in [14] is 16.4 µM (inactive); in data set [15], 83.3 µM (inactive); in data set [16] it was 11.3 µM (inactive).

Values taken from ChEMBL document CHEMBL1201862, “PubChem BioAssay data set” (2004).
